Test results: patent US5434186A, “Carboxylic acid leukotriene B4 antagonists” (Hoffmann-La Roche Inc., priority 1993, dated 1995)

Assays:
LTB4 Receptor = target: T1, LTB4 Receptor (Homo sapiens, UniProt Q15722); experiment: LTB4 Receptor Binding Assay (inhibition of 3H-LTB4 binding, human neutrophils); conditions: 0.5 nM 3H-LTB4, 45 minutes on ice, isolated human neutrophils
T1 construct: Isolated human neutrophils in Gey's salt solution; endogenous in cells; host or cells: human neutrophils isolated from blood (90-95% neutrophils)
T1 sequence (Q15722 whole entry): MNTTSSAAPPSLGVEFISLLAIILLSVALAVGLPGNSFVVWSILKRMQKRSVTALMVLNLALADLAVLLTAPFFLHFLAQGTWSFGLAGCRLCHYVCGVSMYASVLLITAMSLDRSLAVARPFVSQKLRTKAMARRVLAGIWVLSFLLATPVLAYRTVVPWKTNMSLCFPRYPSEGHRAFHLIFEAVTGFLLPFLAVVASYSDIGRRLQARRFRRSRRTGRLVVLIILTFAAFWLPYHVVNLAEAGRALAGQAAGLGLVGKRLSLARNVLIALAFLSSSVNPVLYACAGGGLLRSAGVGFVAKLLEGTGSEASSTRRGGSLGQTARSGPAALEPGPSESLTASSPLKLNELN
Procedure: Binding assays can be performed in microtiter wells. Isolated human neutrophils in Gey's salt solution are incubated on ice for 45 minutes with 0.5 nM ^3 H-LTB4 in the presence or absence of test compounds. Assays are terminated by adding 12 ml ice cold 50 mM Tris (pH 7.4) followed by rapid filtration under vacuum through GF/C filters. Radioactivity is determined by scintillation counting. Non specific binding is defined as the binding not displaced by 100 fold excess of unlabelled LTB4. Specific binding is defined as the difference between total binding and non-specific binding. Non linear analysis of the binding data is performed using LIGAND (Munson and Rodbard, 1980). Ki (Inhibition Constant) values were determined using the Cheng-Prusoff relationship (Cheng and Prusoff, 1973).
Human neutrophils are prepared from citrated or heparinized blood. The blood was diluted 1:1 with Hank's balanced salt solution (HBSS) minus calcium and magnesium and underlayed with 10 ml lymphocyte separation medium (Organon Teknika), followed by centrifugation at 500× g for 30 min., at room temperature. Supernatants are removed down to the red blood cell pellet. HBSS minus calcium and magnesium are added to give 25 ml. To this are added 25 ml 6% dextran in 0.85% NaCl. Samples are mixed and allowed to stand 20 min at room temperature. Supernatants are removed and centrifuged at 500× g for 5 min at 4° C. Pellets are resuspended with 20 ml 0.2% saline for 20 sec followed by the addition of 20 ml 1.6% saline. Samples are centrifuged at 500× g for 5 min at 4° C. The lysis is repeated and the cells (90-95% neutrophils) are resuspended at 2× 10^6 cell/ml in GEY's salt solution.

[1] = system: LTB4 -induced bronchoconstriction; experiment: Guinea Pig Bronchoconstriction In Vivo (LTB4-induced); parameters: species or system guinea pig (Hartley strain); conditions: Cavia porcellus, iv, i.v. five minutes prior to LTB4 (1 μg/kg i.v.), read-out: ID50 (mg/kg), i.v., LTB4-induced bronchoconstriction
Procedure: Male guinea pigs (Hartley strain) weighing 300 to 500 g are anesthetized with urethane (2 g/kg) intraperitoneally and a polyethylene cannula is inserted into the jugular vein for drug administration. Tracheal pressure is recorded from a cannula inserted into the trachea and connected to a Gould P23ID pressure transducer. After surgical preparation of the animals, a period of time is allowed for pulmonary functions to stabilize. The test compound is administered intravenously five minutes prior to leukotriene B4 administration according to the following protocol: Animals are paralyzed with succinylcholine (1.2 mg/kg i.v.) and mechanically respirated (Harvard rodent respirator) at 40 breaths/minute and 2.5 cc tidal volume. Propranolol (0.1 mg/kg) is then administered intravenously one minute prior to leukotriene B4 administration. Animals are then challenged with an intermediate constrictory dose of leukotriene B4 (1 μg/kg) delivered intravenously.
The change (cm H2 O) between pre and peak ventilatory pressure readings is averaged for five control and five drug treated animals. The percent inhibition is calculated from the formula:
((Control-Drug Treated)/Control)×100
When representative compounds of formula I of the invention were utilized as the test compounds the following results were obtained: […]

SMILES	Ki (LTB4 Receptor)	ED50 [1]
CCCc1c(OCCCCCc2ccccc2CCC(=O)O)ccc2c1OCCC2=O [Example 8, 2-[5-[(3,4-Dihydro-4-oxo-8-propyl-2H-1-benzopyran-7-yl)oxy]pentyl]benzenepropanoic Acid]	63 nM	–
CCCc1c(OCCCCCOc2ccccc2CCC(=O)O)ccc2c1CCCC2=O [Example 10, 2-[[5-(5-Oxo-1-propyl-5,6,7,8-tetrahydro-2-naphthalenyl)oxy]pentyloxy]benzenepropanoic Acid]	–	2.08 mg/kg
CCCc1c(OCc2cccc(COc3ccccc3CCC(=O)O)c2)ccc2c1OCCC2=O [Example 39, 2-[3-[[(3,4-Dihydro-4-oxo-8-propyl-2H-1-benzopyran-7-yl)oxy]methyl]phenylmethoxy]benzenepropanoic Acid]	100 nM	5.4 mg/kg
CCCc1c(OCCCCCOc2ccc(OCCCCC(=O)O)cc2CCC(=O)O)ccc2c1OCCC2=O [Example 58, 5-(4-Carboxybutoxy)-2-[5-[(3,4-dihydro-4-oxo-8-propyl-2H-1-benzopyran-7-yl)oxy]pentyloxy]benzenepropanoic Acid Hemihydrate]	4 nM	5.09 mg/kg
CCCc1c(OCCCCCOc2cccc(CCC(=O)O)c2)ccc2c1OCCC2=O [Example 68, 3-[5-[(3,4-Dihydro-4-oxo-8-propyl-2H-1-benzopyran-7-yl)oxy]pentyloxy]benzenepropanoic Acid]	60 nM	3.56 mg/kg
CCCc1ccc2c(c1OCCCCCOc1ccccc1CCC(=O)O)CCCC2=O [Example 79, 2-[5-[(5-Oxo-2-propyl-5,6,7,8-tetrahydro-1-naphthalenyl)oxy]pentyloxy]benzenepropanoic Acid]	1500 nM	–
CCCc1c(OCCCCCCCOc2ccc(C(=O)c3cccc(C(=O)O)c3)cc2CCC(=O)O)ccc2c1OCCC2=O [Example 81, 5-[(3-Carboxyphenyl)carbonyl]-2-[7-[(3,4-dihydro-4-oxo-8-propyl-2H-1-benzopyran-7-yl)oxy]heptyloxy]benzenepropanoic Acid]	3 nM	–
CCCc1c(C#CCCCCOc2ccccc2CCC(=O)O)ccc2c1OCCC2=O [Example 107, 2-[6-(3,4-Dihydro-4-oxo-8-propyl-2H-1-benzopyran-7-yl)-5-hexynyloxy]benzenepropanoic Acid]	50 nM	–
CCCc1c(OCCCCCOc2ccccc2/C=C/C(=O)O)ccc2c1OCCC2=O [Example 109, (E)-3-[2-[5-[(3,4-Dihydro-4-oxo-8-propyl-2H-1-benzopyran-7-yl)oxy]pentyloxy]phenyl]-2-propenoic Acid]	80 nM	–
CCCc1c(OCCCCCCc2ccc(OCCCC(=O)O)cc2/C=C/C(=O)O)ccc2c1OCCC2=O [Example 114, (E)-4-[3-(2-carboxyethenyl)-4-[6-[(3,4-dihydro-4-oxo-8-propyl-2H-1-benzopyran-7-yl)oxy]hexyl]phenoxy]butanoic acid]	1 nM	–
CCCc1c(OCCCCCCc2cccc(OCCCCCCCC(=O)O)c2CCC(=O)O)ccc2c1OCCC2=O [Example 184, 2-[(7-Carboxyheptyl)oxy]-6-[6-[(3,4-dihydro-4-oxo-8-propyl-2H-1-benzopyran-7-yl)oxy]hexyl]benzenepropanoic Acid]	–	0.17 mg/kg
CCCc1c(OCCCCCCc2cccc(OCCCCCCCCC(=O)O)c2CCC(=O)O)ccc2c1OCCC2=O [Example 188, 2-[(8-Carboxyoctyl)oxy]-6-[6-[(3,4-dihydro-4-oxo-8-propyl-2H-1-benzopyran-7-yl)oxy]hexyl]benzenepropanoic Acid]	–	0.9 mg/kg
CCCc1c(OCCCCCCc2cccc(OCCCC(=O)O)c2CCC(=O)O)ccc2c1OCCC2=O [Example 205, 2-(3-Carboxypropoxy)-6-[6-[(3,4-dihydro-4-oxo-8-propyl-2H-1-benzopyran-7-yl)oxy]hexyl]benzenepropanoic Acid]	–	0.26 mg/kg
CCCc1c(OCCCCCCc2cccc(OCCCCCC(=O)O)c2CCC(=O)O)ccc2c1CCCC2=O [Example 206, 2-[(5-Carboxypentyl)oxy]-6-[6-[(5,6,7,8-tetrahydro-5-oxo-1-propyl-2-naphthalenyl)oxy]hexyl]benzenepropanoic Acid]	–	0.12 mg/kg

The remaining molecules from weak to strong by Ki (LTB4 Receptor), led by results:

Ki (LTB4 Receptor)	SMILES	ED50 [1]
270 nM	CCCc1c(OCCCCCOc2ccc3oc(C(=O)O)cc3c2)ccc2c1OCCC2=O [Example 26, 5-[5-[(3,4-Dihydro-4-oxo-8-propyl-2H-1-benzopyran-7-yl)oxy]pentyloxy]-2-benzofurancarboxylic Acid]	–
250 nM	CCCc1c(OCCCCCOc2cccc3cc(C(=O)O)oc23)ccc2c1OCCC2=O [Example 19, 7-[5-[(3,4-Dihydro-4-oxo-8-propyl-2H-1-benzopyran-7-yl)oxy]pentyloxy]-2-benzofurancarboxylic Acid]	–
75 nM	CCCc1c(OCCCCCOc2ccccc2CCC(=O)O)ccc2c1OCC2=O [Example 40, 2-[5-[(2,3-Dihydro-3-oxo-7-propylbenzofuran-6-yl)oxy]pentyloxy]benzenepropanoic Acid]	–
70 nM	CCCc1c(OCCCCCOc2ccccc2OCC(=O)O)ccc2c1OCCC2=O [Example 13, [2-[5-[(3,4-Dihydro-4-oxo-8-propyl-2H-1-benzopyran-7-yl)oxy]pentyloxy]phenoxy]acetic Acid]	1.85 mg/kg
20 nM	CCCc1c(CCCCCCOc2ccccc2CCC(=O)O)ccc2c1OCCC2=O [Example 106, 2-[6-(3,4-Dihydro-4-oxo-8-propyl-2H-1-benzopyran-7-yl)hexyloxy]benzenepropanoic Acid]	–
10 nM	CCCc1c(OCCCCCOc2ccc(C(C)=O)cc2CCC(=O)O)ccc2c1OCCC2=O [Example 33, 5-Acetyl-2-[5-[(3,4-dihydro-4-oxo-8-propyl-2H-1-benzopyran-7-yl)oxy]pentyloxy]benzenepropanoic Acid]	1.8 mg/kg
8 nM	CCCc1c(OCCCCCOc2ccc(C(=O)c3ccccc3CC(=O)O)cc2CCC(=O)O)ccc2c1OCCC2=O [Example 95, 5-[[2-(Carboxymethyl)phenyl]carbonyl]-2-[5-[(3,4-dihydro-4-oxo-8-propyl-2H-1-benzopyran-7-yl)oxy]pentyloxy]benzenepropanoic Acid]	–
5 nM	CCCc1c(OCCCCCOc2ccc(C(=O)Cc3ccccc3C(=O)O)cc2CCC(=O)O)ccc2c1OCCC2=O [Example 92, 5-[2-(2-Carboxyphenyl)-1-oxoethyl]-2-[5-[(3,4-dihydro-4-oxo-8-propyl-2H-1-benzopyran-7-yl)oxy]pentyloxy]benzenepropanoic Acid]	–
4 nM	CCCc1c(OCCCCCOc2ccc(C(=O)CCC(=O)O)cc2CCC(=O)O)ccc2c1OCCC2=O [Example 89, 3-(2-Carboxyethyl)-4-[5-[(3,4-dihydro-4-oxo-8-propyl-2H-1-benzopyran-7-yl)oxy]pentyloxy]-γ-oxobenzenebutanoic Acid]	4.33 mg/kg
4 nM	CCCc1c(OCCCC/C=C/c2ccc(C(=O)c3cccc(C(=O)O)c3)cc2CCC(=O)O)ccc2c1OCCC2=O [Example 101, (E)-5-[(3-Carboxyphenyl)carbonyl]-2-[6-[(3,4-dihydro-4-oxo-8-propyl-2H-1-benzopyran-7-yl)oxy]-1-hexenyl]benzenepropanoic Acid]	–
3 nM	CCCc1c(OCCCCCOc2ccc(OCCCC(=O)O)cc2CCC(=O)O)ccc2c1OCCC2=O [Example 47, 5-(3-Carboxypropoxy)-2-[5-[(3,4-dihydro-4-oxo-8-propyl-2H-1-benzopyran-7-yl)oxy]pentyloxy]benzenepropanoic Acid]	3.66 mg/kg
3 nM	CCCc1c(OCCCCCCCCOc2ccc(C(=O)c3cccc(C(=O)O)c3)cc2CCC(=O)O)ccc2c1OCCC2=O [Example 83, 5-[(3-Carboxyphenyl)carbonyl]-2-[8-[(3,4-dihydro-4-oxo-8-propyl-2H-1-benzopyran-7-yl)oxy]octyloxy]benzenepropanoic Acid]	–
3 nM	CCCc1c(OCCCCCOc2ccc(C(=O)c3ccc(C(=O)O)cc3)cc2CCC(=O)O)ccc2c1OCCC2=O [Example 85, 5-[(4-Carboxyphenyl)carbonyl]-2-[5-[(3,4-dihydro-4-oxo-8-propyl-2H-1-benzopyran-7-yl)oxy]pentyloxy]benzenepropanoic Acid]	6.23 mg/kg
